From the supplement of paper PMC10307832

Experiments:
Experiment in all cases: relative viability (nuclei count vs DMSO), 5 days (fraction); higher = more cells survive
[1] = compound: C1COCCN1C2=NC(=NC3=C2OC4=C3C=CC=N4)C5=CC(=CC=C5)NC(=O)C6=CN=C(C=C6)N + O=C(c1cc(Cc2n[nH]c(=O)c3ccccc23)ccc1F)N1CCN(C(=O)C2CC2)CC1 [Olaparib] (partner 8 µM)
Method in brief: (§1)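 For relative viability, nuclei counts in treated wells were divided by those in vehicle wells. Lung cancer cell lines had been pin-tool dosed in 1536-well plates the day after seeding and cultured for 5 days, then fixed and stained in one step (final 0.05% Triton X-100, 1% formaldehyde, 1 ug/ml Hoechst) and imaged at 4×. Doses were one drug alone or a fixed anchor-drug dose plus five library-drug doses (not always all listed) in √10 steps, and values are duplicate-plate medians.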

[2] = compound: C1COCCN1C2=NC(=NC3=C2OC4=C3C=CC=N4)C5=CC(=CC=C5)NC(=O)C6=CN=C(C=C6)N + Cc1cc(Nc2cc(N3CCN(C)CC3)nc(Sc3ccc(NC(=O)C4CC4)cc3)n2)n[nH]1 [Tozasertib] (partner 0.1 µM)
Method in brief: as §1

SGI-1776 + Phenformin = compound: CN1CCC(CNc2ccc3ncc(-c4cccc(OC(F)(F)F)c4)n3n2)CC1 [SGI-1776] + N=C(N)NC(=N)NCCc1ccccc1 [Phenformin] (partner 250 µM)
Method in brief: as §1

SGI-1776 + Linsitinib = compound: CN1CCC(CNc2ccc3ncc(-c4cccc(OC(F)(F)F)c4)n3n2)CC1 [SGI-1776] + C[C@]1(O)C[C@@H](c2nc(-c3ccc4ccc(-c5ccccc5)nc4c3)c3c(N)nccn32)C1 [Linsitinib] (partner 1 µM)
Method in brief: as §1

Cell Line | relative viability ([1]; first compound 0.02 µM) | relative viability ([1]; first compound 0.06325 µM) | relative viability ([1]; first compound 0.2 µM) | relative viability ([1]; first compound 0.6325 µM) | relative viability ([1]; first compound 2 µM) | relative viability ([2]; first compound 0.02 µM) | relative viability ([2]; first compound 0.06325 µM) | relative viability ([2]; first compound 0.2 µM) | relative viability ([2]; first compound 0.6325 µM) | relative viability ([2]; first compound 2 µM) | relative viability (SGI-1776 + Phenformin; first compound 0.08 µM) | relative viability (SGI-1776 + Phenformin; first compound 0.8 µM) | relative viability (SGI-1776 + Phenformin; first compound 2.53 µM) | relative viability (SGI-1776 + Phenformin; first compound 8 µM) | relative viability (SGI-1776 + Linsitinib; first compound 0.08 µM) | relative viability (SGI-1776 + Linsitinib; first compound 0.8 µM) | relative viability (SGI-1776 + Linsitinib; first compound 2.53 µM) | relative viability (SGI-1776 + Linsitinib; first compound 8 µM)
HCC-827 | 0.567 | 0.61 | 0.771 | 0.575 | 0.589 | 0.415 | 0.435 | 0.441 | 0.438 | 0.343 | 0.412 | 0.424 | 0.459 | 0.301 | 0.961 | 0.978 | 0.952 | 0.875
NCI-H1975 | 0.772 | 0.865 | 1 | 0.86 | 0.381 | 0.893 | 0.699 | 0.315 | 0.225 | 0.215 | 0.426 | 0.41 | 0.403 | 0.379 | 0.946 | 0.906 | 0.909 | 0.803
NCI-H2023 | 0.587 | 0.519 | 0.379 | 0.463 | 0.316 | 0.371 | 0.369 | 0.158 | 0.142 | 0.13 | 0.379 | 0.377 | 0.332 | 0.282 | 0.727 | 0.77 | 0.666 | 0.444
COR-L 105 | 0.71 | 0.649 | 0.607 | 0.671 | 0.63 | 0.325 | 0.352 | 0.329 | 0.359 | 0.31 | 0.559 | 0.512 | 0.452 | 0.315 | 1.1 | 0.927 | 0.874 | 0.717
NCI-H1993 | 0.949 | 1.07 | 1.06 | 0.958 | 0.201 | 0.551 | 0.569 | 0.524 | 0.567 | 0.538 | 0.538 | 0.515 | 0.515 | 0.492 | 0.755 | 0.76 | 0.78 | 0.645
NCI-H322M | 0.793 | 0.77 | 0.685 | 0.943 | 0.586 | 0.535 | 0.49 | 0.471 | 0.401 | 0.338 | 0.875 | 0.846 | 0.786 | 0.552 | 1.01 | 1.04 | 0.933 | 0.774
NCI-H2405 | 0.856 | 0.862 | 0.874 | 0.891 | 0.659 | 0.762 | 0.75 | 0.715 | 0.73 | 0.607 | 0.384 | 0.304 | 0.215 | 0.227 | 0.899 | 0.873 | 0.854 | 0.588
HCC-44 | 0.94 | 1.06 | 1.02 | 1.08 | 0.918 | 0.882 | 1.04 | 0.829 | 0.766 | 0.546 | 0.197 | 0.174 | 0.151 | 0.125 | 0.73 | 0.709 | 0.644 | 0.641
HCC-78 | 0.751 | 0.896 | 0.85 | 0.842 | 0.583 | 0.394 | 0.427 | 0.432 | 0.367 | 0.24 | 0.779 | 0.775 | 0.695 | 0.592 | 0.582 | 0.432 | 0.449 | 0.403
COR-L23 | 0.391 | 0.371 | 0.317 | 0.353 | 0.271 | 0.219 | 0.223 | 0.143 | 0.181 | 0.159 | 0.488 | 0.479 | 0.444 | 0.358 | 0.886 | 0.965 | 0.864 | 0.668
NCI-H2009 | 0.695 | 0.674 | 0.689 | 0.725 | 0.687 | 0.8 | 0.749 | 0.726 | 0.655 | 0.433 | 0.407 | 0.394 | 0.381 | 0.3 | 1.22 | 1.16 | 1.3 | 1.09
NCI-H3122 | 0.665 | 0.614 | 0.625 | 0.935 | 0.483 | 0.404 | 0.47 | 0.341 | 0.364 | 0.289 | 0.371 | 0.328 | 0.309 | 0.278 | 1.04 | 0.983 | 1.16 | 1.08
NCI-H2228 | 0.822 | 0.69 | 0.481 | 0.564 | 0.33 | 0.227 | 0.204 | 0.193 | 0.213 | 0.186 | 0.345 | 0.327 | 0.286 | 0.164 | 0.881 | 0.541 | 0.557 | 0.276
NCI-H1944 | 0.424 | 0.41 | 0.42 | 0.413 | 0.512 | 0.259 | 0.263 | 0.228 | 0.209 | 0.173 | 0.186 | 0.188 | 0.189 | 0.164 | 1.15 | 1.31 | 1.21 | 1.05
NCI-H358 | 0.7 | 0.662 | 0.552 | 0.579 | 0.372 | – | 0.117 | 0.0984 | 0.099 | 0.0866 | 0.325 | 0.34 | 0.313 | 0.214 | 0.725 | 0.756 | 0.758 | 0.388
NCI-H1755 | 0.875 | 0.922 | 0.92 | 0.702 | 0.594 | 0.606 | 0.572 | 0.468 | 0.414 | 0.473 | 0.617 | 0.584 | 0.576 | 0.516 | 0.988 | 0.969 | 0.996 | 0.896
A-427 | 0.795 | 0.717 | 0.72 | 0.789 | 0.598 | 0.187 | 0.225 | 0.199 | 0.175 | 0.219 | 0.258 | 0.277 | 0.275 | 0.209 | 1.13 | 1.19 | 1.16 | 1.07
SK-LU-1 | 0.429 | 0.432 | 0.607 | 0.478 | 0.355 | 0.348 | 0.287 | 0.266 | 0.284 | 0.314 | 0.528 | 0.494 | 0.37 | 0.322 | 1.33 | 1.24 | 1.06 | 0.633
NCI-H838 | 0.86 | 0.812 | 0.743 | 0.741 | 0.353 | 0.278 | 0.278 | 0.256 | 0.257 | 0.182 | 0.622 | 0.633 | 0.52 | 0.335 | 1.03 | 0.982 | 1.02 | 0.684
LOU-NH91 | 0.928 | 0.959 | 0.942 | 0.864 | 0.745 | 0.591 | 0.738 | 0.649 | 0.652 | 0.465 | 0.754 | 0.733 | 0.716 | 0.565 | 1.06 | 1.03 | 0.955 | 0.666
BEN | 0.935 | 1.17 | 1.23 | 1.09 | 0.819 | 0.593 | 0.444 | 0.488 | 0.513 | 0.386 | 0.282 | 0.269 | 0.303 | 0.306 | 0.931 | 0.789 | 0.796 | 0.646
NCI-H2085 | 0.735 | 0.793 | 0.747 | 0.68 | 0.547 | 0.667 | 0.826 | 0.691 | 0.456 | 0.463 | 0.852 | 0.8 | 0.795 | 0.58 | 0.994 | 0.957 | 0.902 | 0.757
LCLC-103H | 0.732 | 0.799 | 0.815 | 0.745 | 0.502 | 0.537 | 0.511 | 0.471 | 0.46 | 0.35 | 0.371 | 0.325 | 0.323 | 0.281 | 1.07 | 0.972 | 1.1 | 0.979
ABC-1 | 0.767 | 0.945 | 0.726 | 1.04 | 0.685 | 0.177 | 0.183 | 0.167 | 0.406 | 0.222 | 0.23 | 0.24 | 0.219 | 0.236 | 0.745 | 0.895 | 0.883 | 0.742
NCI-H650 | 0.403 | 0.405 | 0.379 | 0.371 | 0.408 | 0.769 | 0.766 | 0.737 | 0.799 | 0.513 | 0.521 | 0.438 | 0.435 | 0.368 | 1.07 | 0.952 | 0.686 | 0.727
EPLC-272H | 0.732 | 0.807 | 0.547 | 0.721 | 0.58 | 0.249 | 0.173 | 0.175 | 0.223 | 0.199 | 0.261 | 0.326 | 0.352 | 0.246 | 1.18 | 1.19 | 1.34 | 1.11
EKVX | 0.929 | 0.831 | 0.88 | 0.832 | 0.563 | 0.396 | 0.391 | 0.34 | 0.408 | 0.236 | 0.237 | 0.241 | 0.24 | 0.241 | 1.1 | 0.985 | 1.01 | 0.863
NCI-H1666 | 0.757 | 0.74 | 0.729 | 0.804 | 0.755 | 0.614 | 0.615 | 0.588 | 0.513 | 0.501 | 0.615 | 0.544 | 0.527 | 0.502 | 0.856 | 0.83 | 0.772 | 0.493
HCC-15 | 0.757 | 0.775 | 0.735 | 0.671 | 0.628 | 0.462 | 0.438 | 0.19 | 0.205 | 0.208 | 0.45 | 0.417 | 0.372 | 0.343 | 0.866 | 0.942 | 0.87 | 0.657
